# Columns and labels:
# [1] = system: GPC glucuronidation in human liver microsomes; experiment: Chemical inhibition of GPC glucuronidation in human liver microsomes; details: GPC 15 μM, HLMs 0.2 mg/mL, 30 min
# Experimental: (§1) The glucuronidation incubation system consisted of Tris-HCl buffer (50 mM, pH = 7.4), magnesium chloride (4 mM), alamethicin (12.5 μg/mL), human liver microsomes (0.5 mg/mL), UDPGA (100 mM), and GPC (20 μM). […] The incubation system was first preincubated at 37 °C for 3 min before adding UDPGA to initiate the reaction. The reaction was terminated […] with the addition of an equal volume of iced acetonitrile (containing 30 μM PPT). After vortexing for 3 min, the supernatant obtained was centrifuged at 14,300 rpm for 15 min at 4 °C and used for LC–MS/MS analysis.
# (§2) Glucuronidation metabolism of GPC in HLMs was inhibited using hecogenin, phenylbutazone, fluconazole, and magnolol. The concentrations of the four inhibitors were set to 1, 10, 50, and 200 μM, and the concentration of GPC was set to 15 μM. The incubation time and protein concentration were […], respectively. All the rest of the incubation conditions were as in Section 4.3. The incubation without inhibitor but with the same volume of DMSO was set to be the solvent control.
# GPC glucuronidation = experiment: as above; details: human, pH 7.4
# Experimental: as §1, §2
# recombinant human UGT1A4 = molecular target: T1, recombinant human UGT1A4 (Homo sapiens, UniProt P22310); experiment: Recombinant human UGT enzyme assay of GPC glucuronidation, UGT1A4; assay type: in vitro ADME; details: recombinant UGT1A4 0.1 mg/mL, GPC 1 and 10 μM
# T1 construct: purchased Cypex (Scotland, UK)
# T1 sequence (P22310 29-534): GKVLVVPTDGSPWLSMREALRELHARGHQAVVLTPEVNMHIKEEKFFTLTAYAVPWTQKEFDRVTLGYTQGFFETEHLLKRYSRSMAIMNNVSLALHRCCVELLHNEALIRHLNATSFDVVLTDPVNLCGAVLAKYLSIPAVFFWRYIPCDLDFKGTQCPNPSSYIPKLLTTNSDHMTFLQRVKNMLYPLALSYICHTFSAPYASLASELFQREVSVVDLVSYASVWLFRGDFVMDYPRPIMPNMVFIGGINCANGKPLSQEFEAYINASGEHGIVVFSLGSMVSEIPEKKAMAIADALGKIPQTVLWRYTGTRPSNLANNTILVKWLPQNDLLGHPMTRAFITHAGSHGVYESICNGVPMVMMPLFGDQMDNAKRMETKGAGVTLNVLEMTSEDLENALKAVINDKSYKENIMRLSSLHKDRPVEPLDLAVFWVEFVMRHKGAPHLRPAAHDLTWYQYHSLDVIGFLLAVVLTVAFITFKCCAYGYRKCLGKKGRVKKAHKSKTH
# Experimental: (§3) The glucuronidation incubation system consisted of Tris-HCl buffer (50 mM, pH = 7.4), magnesium chloride (4 mM), alamethicin (12.5 μg/mL), human liver microsomes (0.5 mg/mL), UDPGA (100 mM), and GPC (20 μM).
# (§4) The glucuronidation metabolic activity of GPC at two concentration levels (1 and 10 μM) was determined using an incubation system with 10 recombinant human UGT enzymes (UGT1A1, 1A3, 1A4, 1A6, 1A7, 1A8, 1A9, 1A10, 2B7, 2B17) (0.1 mg/mL). The incubation conditions were the same as in Section 4.3, except for the protein concentration of 0.1 mg/mL. Lastly, metabolites were detected using LC–MS/MS.
# [2] = system: recombinant human UGT1A1, 1A3, 1A6, 1A7, 1A8, 1A9, 1A10, 2B7, and 2B17; experiment: Recombinant human UGT enzyme assay of GPC glucuronidation, remaining isoenzymes; assay type: in vitro ADME; details: remaining recombinant UGT isoenzymes 0.1 mg/mL, GPC 1 and 10 μM
# Experimental: as §3, §4
# [3] = GPC glucuronidation in rat liver microsomes (enzyme kinetics, species comparison); details: Sprague-Dawley, rat, rat liver microsomes, pH 7.4
# [4] = system: glucuronidation (GPCG formation); experiment: as above; details: Sprague-Dawley, rat, rat liver microsomes, pH 7.4
# [5] = system: rat liver microsomes (RLM); experiment: as above; details: 30 min
# [6] = GPC glucuronidation in dog liver microsomes (enzyme kinetics, species comparison); details: Beagle, dog, dog liver microsomes, pH 7.4
# [7] = system: dog liver microsomes (DLM); experiment: as above; details: 30 min
# [8] = system: glucuronidation (GPCG formation); experiment: as above; details: Beagle, dog, dog liver microsomes, pH 7.4
# [9] = GPC glucuronidation in pig liver microsomes (enzyme kinetics, species comparison); details: minipig, pig, pig liver microsomes, pH 7.4
# [10] = system: glucuronidation (GPCG formation); experiment: as above; details: pig, pig liver microsomes, pH 7.4
# [11] = system: pig liver microsomes (PLM); experiment: as above; details: 30 min
# [12] = GPC glucuronidation in human liver microsomes (enzyme kinetics, species comparison); details: human, human liver microsomes, pH 7.4
# [13] = system: glucuronidation (GPCG formation); experiment: as above; details: human, human liver microsomes, pH 7.4
# [14] = system: human liver microsomes (HLMs); experiment: as above; details: 30 min
# [15] = GPC glucuronidation in mouse liver microsomes (enzyme kinetics, species comparison); details: ICR/CD-1, mouse, mouse liver microsomes, pH 7.4
# [16] = system: glucuronidation (GPCG formation); experiment: as above; details: ICR/CD-1, mouse, mouse liver microsomes, pH 7.4
# [17] = system: mouse liver microsomes (MLM); experiment: as above; details: MLMs 0.2 mg/mL, GPC 2–200 μM, 30 min, substrate inhibition fit
# [18] = GPC glucuronidation in rabbit liver microsomes (enzyme kinetics, species comparison); details: New Zealand, rabbit, rabbit liver microsomes, pH 7.4
# [19] = system: glucuronidation (GPCG formation); experiment: as above; details: New Zealand, rabbit, rabbit liver microsomes, pH 7.4
# [20] = system: rabbit liver microsomes (RaLM); experiment: as above; details: RaLMs 0.2 mg/mL, GPC 2–200 μM, 30 min, substrate inhibition fit
# [21] = GPC glucuronidation in bovine liver microsomes (enzyme kinetics, species comparison); details: bovine, bovine liver microsomes, pH 7.4
# [22] = system: bovine liver microsomes (BLM); experiment: as above; details: 30 min
# [23] = system: glucuronidation (GPCG formation); experiment: as above; details: bovine, bovine liver microsomes, pH 7.4
# [24] = GPC glucuronidation in monkey liver microsomes (enzyme kinetics, species comparison); details: monkey, monkey liver microsomes, pH 7.4
# [25] = system: glucuronidation (GPCG formation); experiment: as above; details: monkey, monkey liver microsomes, pH 7.4
# [26] = system: monkey liver microsomes (MkLM); experiment: as above; details: 30 min
# [27] = inhibitor 1, 10, 50, and 200 μM
compound,measurement,setting,value
CCCCC1C(=O)N(c2ccccc2)N(c2ccccc2)C1=O [phenylbutazone],inhibition of GPC glucuronidation (in words),[1]; [27],Neither fluconazole nor phenylbutazone inhibited
"C=CCc1ccc(O)c(-c2cc(CC=C)ccc2O)c1 [Magnolol, magnolol]",inhibition of GPC glucuronidation (in words),[1]; inhibitor 1–50 μM,insignificant inhibition
same,"inhibition at 30 min, 200 μM",GPC glucuronidation,50%
OC(Cn1cncn1)(Cn1cncn1)c1ccc(F)cc1F [fluconazole],inhibition of GPC glucuronidation (in words),[1]; [27],Neither fluconazole nor phenylbutazone inhibited
"CC(C)=C1CC=C([C@H]2CC[C@]3(C)[C@@H]2CC[C@@H]2[C@@]4(C)CC[C@H](O)C(C)(C)[C@@H]4CC[C@]23C)C1=O [GPC, Gypensapogenin C]",catalytic activity for GPC glucuronidation,recombinant human UGT1A4,highest catalytic activity
same,catalytic activity for GPC glucuronidation,[2],none of the remaining UGT isoenzymes showed activity
same,microsomal CLint,[3],40 µL/min/mg
same,Km at 30 min,[4],94.1 ± 89.8 µM
same,Vmax,"[5]; RLMs 0.2 mg/mL, GPC 2–200 μM, substrate inhibition fit",3.80 ± 3.01 nmol/min/mg
same,"GPC glucuronidation product generation (semiquantitative, peak area ratio)","[5]; rat liver microsomes 0.2 mg/mL, GPC 10 and 50 μM",Trace amounts
same,microsomal CLint,[6],2120 µL/min/mg
same,Vmax,"[7]; DLMs 0.2 mg/mL, GPC 2–200 μM, substrate inhibition fit",20.28 ± 2.57 nmol/min/mg
same,"GPC glucuronidation product generation (semiquantitative, peak area ratio)","[7]; dog liver microsomes 0.2 mg/mL, GPC 10 and 50 μM",highest amounts
same,Km at 30 min,[8],9.56 ± 2.83 µM
same,microsomal CLint,[9],147 µL/min/mg
same,Km at 30 min,[10],9.58 ± 2.32 µM
same,Vmax,"[11]; PLMs 0.2 mg/mL, GPC 2–200 μM, substrate inhibition fit",1.41 ± 0.18 nmol/min/mg
same,"GPC glucuronidation product generation (semiquantitative, peak area ratio)","[11]; pig liver microsomes 0.2 mg/mL, GPC 10 and 50 μM",Trace amounts
same,microsomal CLint,[12],27 µL/min/mg
same,Km at 30 min,[13],15.4 ± 5.26 µM
same,Vmax,"[14]; HLMs 0.2 mg/mL, GPC 2–200 μM, substrate inhibition fit",0.42 ± 0.09 nmol/min/mg
same,"GPC glucuronidation product generation (semiquantitative, peak area ratio)","[14]; human liver microsomes 0.2 mg/mL, GPC 10 and 50 μM",Trace amounts
same,microsomal CLint,[15],690 µL/min/mg
same,Km at 30 min,[16],10 ± 2.1 µM
same,Vmax,[17],6.93 ± 0.69 nmol/min/mg
same,microsomal CLint,[18],304 µL/min/mg
same,Km at 30 min,[19],16.2 ± 3.77 µM
same,Vmax,[20],4.92 ± 0.57 nmol/min/mg
same,microsomal CLint,[21],259 µL/min/mg
same,Vmax,"[22]; BLMs 0.2 mg/mL, GPC 2–200 μM, substrate inhibition fit",3.17 ± 0.89 nmol/min/mg
same,"GPC glucuronidation product generation (semiquantitative, peak area ratio)","[22]; bovine liver microsomes 0.2 mg/mL, GPC 10 and 50 μM",Trace amounts
same,Km at 30 min,[23],12.2 ± 5.16 µM
same,microsomal CLint,[24],77 µL/min/mg
same,Km at 30 min,[25],107 ± 73.2 µM
same,Vmax,"[26]; MkLMs 0.2 mg/mL, GPC 2–200 μM, substrate inhibition fit",8.29 ± 4.69 nmol/min/mg
same,"GPC glucuronidation product generation (semiquantitative, peak area ratio)","[26]; monkey liver microsomes 0.2 mg/mL, GPC 10 and 50 μM",Trace amounts
hecogenin,inhibition of GPC glucuronidation,[1]; inhibitor 1 μM,more than 40%
same,inhibition of GPC glucuronidation,[1]; inhibitor 10 μM,70%

# From PMC9865363, “Identification of Human UDP-Glucuronosyltransferase Involved in Gypensapogenin C Glucuronidation and Species Differences” (International Journal of Molecular Sciences, 2023)
